Assay [1] has as its system Capan-1 (K-Ras G12V). The experiment in a line: CellTiter-Glo cell viability assay, 5-day treatment. It is filed as cell-based. Conditions: Homo sapiens, CAPAN-1, 120 h, 5-day treatment; read-out: Capan-1 Cell Viability assay data (K-Ras G12V, IC50). In a few lines: (§1)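 Viability is read as luminescence on day 5 after direct compound addition to plated cells, following about 30 minutes' room-temperature equilibration. Each signal is scaled to mean DMSO as 100%.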
On the technique in general: In ATP-based viability assays light output follows the ATP content of the culture.

Assay [2] relates to NCI-H358 (K-Ras G12C). The description is as above. It is filed as cell-based. The settings on record: Homo sapiens, NCI-H358, 120 h, 5-day treatment; read-out: H358 Cell Viability assay data (K-Ras G12C, IC50). A digest of the protocol:
as §1

The target in assay [3] is NRAS G12C (Homo sapiens, UniProt P01111+P62937, G12C). The assay can be described thus: Disruption of BRAF RBD interaction with Ras (FRET / MOA assay, with Cyclophilin A). The assay is classed as biochemical. Conditions: NRAS G12C; read-out: NRAS G12C FRET data IC50.
NRAS G12C, sequence (P01111 whole entry G12C): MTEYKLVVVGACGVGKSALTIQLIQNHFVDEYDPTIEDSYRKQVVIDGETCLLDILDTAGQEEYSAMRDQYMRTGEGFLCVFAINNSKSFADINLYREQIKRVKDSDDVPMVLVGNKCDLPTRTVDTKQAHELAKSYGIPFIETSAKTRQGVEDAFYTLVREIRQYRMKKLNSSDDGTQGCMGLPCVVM
NRAS G12C, sequence (P62937 whole entry): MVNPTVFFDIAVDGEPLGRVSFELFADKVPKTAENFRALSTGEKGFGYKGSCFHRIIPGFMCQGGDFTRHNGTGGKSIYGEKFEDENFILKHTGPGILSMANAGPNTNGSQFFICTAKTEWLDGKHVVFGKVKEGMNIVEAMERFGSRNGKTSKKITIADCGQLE
Assay [4] concerns the target KRAS G12D (Homo sapiens, UniProt P01116+P62937, G12D). The assay is described as above. It is filed as biochemical. The settings on record: read-out: KRAS G12D FRET data, IC50. In a few lines: (§2)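 Compound-driven ternary complex formation between nucleotide-loaded K-Ras and Cyclophilin A was measured as loss of BRAF RBD binding. Compounds (10-point 3-fold series, top 30 μM final) were incubated 3 h at 25 °C, then anti-His Eu-W1024 (10 nM) and anti-GST allophycocyanin (50 nM) added for 1.5 h. IC50 was taken from the TR-FRET ratio decrease versus DMSO.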

In assay [5] the target is KRAS G12V (Homo sapiens, UniProt P01116+P62937, G12V). The assay is described as above. The assay is classed as biochemical. Conditions: KRAS G12V; read-out: KRAS G12V FRET data IC50. In a few lines:
as §2

The target in assay [6] is KRAS G12C (Homo sapiens, UniProt P01116+P62937, G12C). The assay is described as above. Conditions: read-out: KRAS G12C FRET data, IC50. The assay is classed as biochemical. In a few lines: as §2
KRAS G12C, sequence (P01116 1-169 isoform P01116-2 G12C): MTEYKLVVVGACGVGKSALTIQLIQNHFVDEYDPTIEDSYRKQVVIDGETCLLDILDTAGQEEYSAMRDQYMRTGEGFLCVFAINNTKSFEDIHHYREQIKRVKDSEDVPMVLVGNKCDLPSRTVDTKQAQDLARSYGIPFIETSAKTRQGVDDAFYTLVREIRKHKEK
KRAS G12C, sequence (P62937 whole entry): as the sequence (P62937 whole entry) above
Assay [7] addresses KRAS G13D (Homo sapiens, UniProt P01116+P62937, G13D). The description is as above. It is filed as biochemical. Conditions: KRAS G13D; read-out: KRAS G13D FRET data IC50. In a few lines:
as §2

Assay [8] deals with KRAS G13C (Homo sapiens, UniProt P01116+P62937, G13C). The description is as above. It is filed as biochemical. Conditions: read-out: KRAS G13C FRET data, IC50. In a few lines:
as §2

Assay [9] has as its target KRAS G12S (Homo sapiens, UniProt P01116+P62937, G12S). The description is as above. It is filed as biochemical. The settings on record: read-out: KRAS G12S FRET data, IC50. In a few lines: as §2
Assay [10] concerns the target KRAS WT (Homo sapiens, UniProt P01116+P62937). The description is as above. It is filed as biochemical. The settings on record: KRAS WT; read-out: KRAS WT FRET data IC50. A digest of the protocol:
as §2

The target of assay [11] is KRAS Q61H (Homo sapiens, UniProt P01116+P62937, Q61H). The assay is described as above. The assay is classed as biochemical. The settings on record: KRAS Q61H; read-out: KRAS Q61H FRET data IC50. A digest of the protocol:
(§3)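 TR-FRET in 25 mM HEPES pH 7.3, 100 mM NaCl, 5 mM MgCl2, 0.1% BSA: 25 μM Cyclophilin A, 12.5 nM His6-Ras-GMPPNP, 50 nM GST-BRAF RBD with compound (10-point 3-fold series from 30 μM), 3 h at 25° C. Anti-His Eu/anti-GST APC added, 1.5 h more; IC50 from decreased FRET ratio versus DMSO.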

Assay [12] deals with NRAS Q61R (Homo sapiens, UniProt P01111+P62937, Q61R). Described as above. It is filed as biochemical. Conditions: NRAS Q61R; read-out: NRAS Q61R FRET data IC50. A digest of the protocol:
as §3

For assay [13], the target named is NRAS Q61K (Homo sapiens, UniProt P01111+P62937, Q61K). The assay is described as above. It is filed as biochemical. Conditions: NRAS Q61K; read-out: NRAS Q61K FRET data IC50. In a few lines: as §3
NRAS Q61K, sequence (P01111 whole entry Q61K): as the sequence (P01111 whole entry G12C) above, with C12G, Q61K counted along it
NRAS Q61K, sequence (P62937 whole entry): as the sequence (P62937 whole entry) above
Assay [14] addresses NRAS WT (Homo sapiens, UniProt P01111+P62937). The description is as above. The assay is classed as biochemical. The settings on record: NRAS WT; read-out: NRAS WT FRET data IC50. A digest of the protocol:
as §3

KRAS G12S, sequence (P01116 1-169 isoform P01116-2 G12S limits assumed): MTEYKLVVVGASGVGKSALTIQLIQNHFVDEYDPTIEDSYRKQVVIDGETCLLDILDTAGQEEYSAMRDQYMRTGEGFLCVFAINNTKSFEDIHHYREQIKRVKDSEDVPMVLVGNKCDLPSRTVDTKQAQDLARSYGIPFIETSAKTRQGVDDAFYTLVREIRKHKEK
KRAS G12S, sequence (P62937 whole entry): as the sequence (P62937 whole entry) above
KRAS G12D, sequence (P01116 1-169 isoform P01116-2 G12D limits assumed): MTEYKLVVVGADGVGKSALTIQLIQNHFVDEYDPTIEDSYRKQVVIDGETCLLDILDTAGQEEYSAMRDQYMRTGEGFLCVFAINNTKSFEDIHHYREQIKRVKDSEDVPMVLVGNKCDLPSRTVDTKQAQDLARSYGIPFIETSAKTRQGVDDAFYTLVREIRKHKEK
KRAS G12D, sequence (P62937 whole entry): as the sequence (P62937 whole entry) above
KRAS G13C, sequence (P01116 1-169 isoform P01116-2 G13C): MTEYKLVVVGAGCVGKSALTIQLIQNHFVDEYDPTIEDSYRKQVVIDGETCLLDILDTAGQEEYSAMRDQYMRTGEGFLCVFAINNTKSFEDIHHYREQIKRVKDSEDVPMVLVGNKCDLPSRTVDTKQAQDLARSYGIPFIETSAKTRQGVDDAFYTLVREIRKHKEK
KRAS G13C, sequence (P62937 whole entry): as the sequence (P62937 whole entry) above
KRAS G13D, sequence (P01116 1-169 isoform P01116-2 G13D limits assumed): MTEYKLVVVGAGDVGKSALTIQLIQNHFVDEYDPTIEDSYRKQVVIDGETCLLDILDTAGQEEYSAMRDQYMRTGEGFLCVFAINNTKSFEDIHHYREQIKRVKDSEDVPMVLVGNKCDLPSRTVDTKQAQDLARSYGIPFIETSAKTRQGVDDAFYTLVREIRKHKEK
KRAS G13D, sequence (P62937 whole entry): as the sequence (P62937 whole entry) above
KRAS G12V, sequence (P01116 1-169 isoform P01116-2 G12V limits assumed): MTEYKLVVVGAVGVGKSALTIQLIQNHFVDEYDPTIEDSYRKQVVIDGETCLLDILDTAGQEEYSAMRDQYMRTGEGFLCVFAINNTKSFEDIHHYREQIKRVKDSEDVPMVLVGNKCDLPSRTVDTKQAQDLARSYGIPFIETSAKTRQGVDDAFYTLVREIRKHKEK
KRAS G12V, sequence (P62937 whole entry): as the sequence (P62937 whole entry) above
KRAS Q61H, sequence (P01116 1-169 isoform P01116-2 Q61H limits assumed): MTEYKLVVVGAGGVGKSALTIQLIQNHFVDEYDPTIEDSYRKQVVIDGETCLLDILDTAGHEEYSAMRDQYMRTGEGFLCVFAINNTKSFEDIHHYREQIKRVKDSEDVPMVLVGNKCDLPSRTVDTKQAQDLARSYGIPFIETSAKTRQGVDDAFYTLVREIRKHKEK
KRAS Q61H, sequence (P62937 whole entry): as the sequence (P62937 whole entry) above
KRAS WT, sequence (P01116 1-169 isoform P01116-2 limits assumed): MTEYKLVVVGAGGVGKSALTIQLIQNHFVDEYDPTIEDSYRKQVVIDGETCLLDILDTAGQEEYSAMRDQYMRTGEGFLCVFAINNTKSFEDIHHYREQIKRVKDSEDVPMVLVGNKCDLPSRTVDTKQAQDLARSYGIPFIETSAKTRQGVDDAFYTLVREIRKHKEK
KRAS WT, sequence (P62937 whole entry): as the sequence (P62937 whole entry) above
NRAS WT, sequence (P01111 whole entry): as the sequence (P01111 whole entry G12C) above, with C12G counted along it
NRAS WT, sequence (P62937 whole entry): as the sequence (P62937 whole entry) above
NRAS Q61R, sequence (P01111 whole entry Q61R): as the sequence (P01111 whole entry G12C) above, with C12G, Q61R counted along it
NRAS Q61R, sequence (P62937 whole entry): as the sequence (P62937 whole entry) above

In general, IC50 refers to the concentration that gives 50% inhibition. `CCn1c(-c2cc(N3CCN(C)CC3)cnc2[C@H](C)OC)c2c3cc(ccc31)-c1csc(n1)C[C@H](NC(=O)[C@H](C(C)C)N(C)C(=O)[C@H]1CCNC1=O)C(=O)N1CCC[C@H](N1)C(=O)OCC(C)(C)C2` (single isomer, unassigned) [Example A449]: the IC50 in assay [1] was in the range of 0.1 to 1 µM; in assay [2], 0.1 to 1 µM; in [3] it was 0.1 to 1 µM; in assay [4], 1 to 10 µM; in assay [5], 1 to 10 µM; in assay [6], 0.1 to 1 µM. The half-maximal inhibitory concentration (IC50) in assay [7] fell in the range of 1 to 10 µM; in assay [8], 0.1 to 1 µM; in [9], 1 to 10 µM; in [10], 0.1 to 1 µM; in [11] it was 0.1 to 1 µM; in assay [12], 0.1 to 1 µM. Besides, the IC50 in [13] and in [14] was 0.1 to 1 µM throughout.

Take `CCn1c(-c2cccnc2[C@H](C)OC)c2c3cc(ccc31)-c1csc(n1)C[C@H](NC(=O)[C@H](C(C)C)N(C)C(=O)N1CC[C@]3(CCN(C)C3=O)C1)C(=O)N1CCC[C@H](N1)C(=O)OCC(C)(C)C2` (single isomer, unassigned) [Example A461]: the IC50 in assay [1] fell in the range of 0.1 to 1 µM; in [2], 0.1 to 1 µM; in assay [3], 0.1 to 1 µM; in assay [4], 1 to 10 µM; in assay [5], 1 to 10 µM; in [6], 0.1 to 1 µM. The half-inhibitory concentration (IC50) fell in the range of 1 to 10 µM in [7]; 1 to 10 µM in assay [8]; 1 to 10 µM in [9]; 0.1 to 1 µM in [10]; 0.1 to 1 µM in assay [11]; 0.1 to 1 µM in [12]. Moreover, the IC50 in [13] lay within 0.1 to 1 µM; in assay [14], 1 to 10 µM.

In the case of `CCn1c(-c2cccnc2[C@H](C)OC)c2c3cc(ccc31)-c1csc(n1)C[C@H](NC(=O)[C@H](C(C)C)N(C)C(=O)N1CC([C@@H](C)CO)C1)C(=O)N1CCC[C@H](N1)C(=O)OCC(C)(C)C2` (single isomer, unassigned) [Example A487], the IC50 in assay [1] was 0.01 to 0.1 µM; in [2] it was below 0.01 µM; in assay [3], 0.01 to 0.1 µM; in [4] it was 0.1 to 1 µM; in assay [5] it was 0.01 to 0.1 µM; in assay [6], 0.01 to 0.1 µM. For the same molecule, the concentration for half-maximal inhibition (IC50) in assay [7] was 0.1 to 1 µM; in assay [8], 0.1 to 1 µM; in assay [9], 0.1 to 1 µM; in [10], 0.01 to 0.1 µM; in assay [11], 0.01 to 0.1 µM; in assay [12], 0.01 to 0.1 µM. For the same molecule, the IC50 in assay [13] and in assay [14] was 0.01 to 0.1 µM each time.

For `CCn1c(-c2cccnc2[C@H](C)OC)c2c3cc(ccc31)-c1csc(n1)C[C@H](NC(=O)[C@H](C(C)C)N(C)C(=O)N1CC[C@@]3(CCN(C)C3=O)C1)C(=O)N1CCC[C@H](N1)C(=O)OCC(C)(C)C2` (single isomer, unassigned) [Example A495], the IC50 in assay [1] was in the range of 0.1 to 1 µM; in assay [2], 0.01 to 0.1 µM; in assay [3] it was 0.1 to 1 µM; in assay [4], 1 to 10 µM; in assay [5], 0.1 to 1 µM; in assay [6], 0.1 to 1 µM. The IC50 in [7] fell in the range of 1 to 10 µM; in [8] it was 0.1 to 1 µM; in [9], 0.1 to 1 µM; in assay [10], 0.1 to 1 µM; in assay [11], 0.1 to 1 µM; in [12] it was 0.1 to 1 µM. Moreover, the IC50 in assay [13] and in [14] was 0.1 to 1 µM each time.

The values above are taken from patent US20230233569A1 (Revolution Medicines, Inc., priority 2020, published 2023).
